Like-named read-outs stand apart in the source and are kept apart here.
System: PMA-differentiated THP-1 cells
Experiment: IL-1β production in PMA-differentiated THP-1 cells stimulated with gramicidin (hTHP-1 assay containing 2% fetal bovine serum; Procedures 1 and 2)
Assay type: cell-based, human
Conditions: 2% fetal bovine serum
Method in brief: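 Compound titrations in 0.37% final DMSO were added to THP-1 cells that had been plated after 16-18 h PMA treatment, 50,000 per well in 2% FBS. One hour later the cells received gramicidin (5 μM, 2 h) and were centrifuged. HTRF detected IL-1β in the collected supernatants.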

[1] = Homo sapiens, THP-1, Table B1, class symbols, read-out: Average IC50 of compounds in hTHP-1 assay: hTHP-1 IC50
[2] = Table B2, class symbols, read-out: hTHP-1 IC50

| Compound | IC50 [1] [nM] | IC50 [2] [nM] | further results |
| --- | --- | --- | --- |
| Cc1c(C2CC2)nc2c(c1NC(=O)N=S(N)(=O)c1sc(C(C)(C)O)cc1F)CCC2 (stereo not shown) [Compound 174, N′-((2-cyclopropyl-3-methyl-6,7-dihydro-5H-cyclopenta[b]pyridin-4-yl)carbamoyl)-3-fluoro-5-(2-hydroxypropan-2-yl)thiophene-2-sulfonimidamide] | 200 to 1000 |  |  |
| CC(C)(O)c1ncc(S(N)(=O)=NC(=O)Nc2cc(-c3ccccc3)nc3c2CCC3)s1 (single isomer, unassigned) [Compound 142b, (S) or (R)-2-(2-hydroxy-propan-2-yl)-N′-((2-phenyl-6,7-dihydro-5H-cyclopenta[b]pyridin-4-yl)carbamoyl)thiazole-5-sulfonimidamide] |  |  | IC50 (Table B1, numeric bounds, read-out: Average IC50 of compounds in hTHP-1 assay: hTHP-1 IC50): > 30000 nM |
| CC1Cc2nc3c(c(NC(=O)N=S(N)(=O)c4cnc(C(C)(C)O)s4)c2C1)CCC3 (stereo not shown) [Compound 152, 2-(2-hydroxypropan-2-yl)-N′-((2-methyl-1,2,3,5,6,7-hexahydrodicyclopenta[b,e]pyridin-8-yl)carbamoyl)thiazole-5-sulfonimidamide] | 200 to 1000 |  |  |
| CCc1c(C)nc2c(c1NC(=O)N=S(N)(=O)c1cnc(C(C)(C)O)s1)CCC2 (stereo not shown) [Compound 117, N′-((3-ethyl-2-methyl-6,7-dihydro-5H-cyclopenta[b]pyridin-4-yl)carbamoyl)-2-(2-hydroxypropan-2-yl)thiazole-5-sulfonimidamide] | 5000 to 30000 |  |  |
| COCc1nc(C(C)(C)O)sc1S(N)(=O)=NC(=O)Nc1c2c(nc3c1CCC3)CCC2 (single isomer, unassigned) [Compound 689a, (S) or (R)-N′-((1,2,3,5,6,7-hexahydrodicyclopenta [b,e]pyridin-8-yl)carbamoyl)-2-(2-hydroxypropan-2-yl)-4-(methoxymethyl) thiazole-5-sulfonimidamide] |  |  | IC50 (Homo sapiens, THP-1, Table B2, numeric bounds, read-out: hTHP-1 IC50): > 30000 nM |
| CC(C)(O)c1cc(S(N)(=O)=NC(=O)Nc2c3c(nc4c2CCC4(C)C)CCC3)nn1-c1ccccc1 (single isomer, unassigned) [Compound 663b, (R) or (S)-N′-((3,3-dimethyl-1,2,3,5,6,7-hexahydrodicyclopenta [b,e]pyridin-8-yl)carbamoyl)-5-(2-hydroxypropan-2-yl)-1-phenyl-1H-pyrazole-3-sulfonimidamide] |  |  | IC50 (Homo sapiens, THP-1, Table B2, class symbols, read-out: hTHP-1 IC50): 1000 to 5000 nM |

The next lines start with results.

| IC50 [1] [nM] | IC50 [2] [nM] | Compound | further results |
| --- | --- | --- | --- |
|  | 40 to 200 | CC(C)(O)c1sc(S(N)(=O)=NC(=O)Nc2c3c(nc4c2CCC42CC2)CCC3)cc1F (single isomer, unassigned) [Compound 614a, (R) or (S)-4-Fluoro-5-(2-hydroxypropan-2-yl)-N′-((1′,5′,6′,7′-tetrahydro-2′H-spiro[cyclopropane-1,3′-dicyclopenta[b,e]pyridin]-8′-yl)carbamoyl) thiophene-2-sulfonimidamide] |  |
|  | 40 to 200 | CC1(C)CCc2c1nc1c(c2NC(=O)N=S(N)(=O)c2cnc(C(C)(O)CO)s2)CCC1 (single isomer, unassigned) [Compound 201b, (S, R) or (R, R) or (R, S) or (S, S)-2-(1,2-Dihydroxypropan-2-yl)-N′-((3,3-dimethyl-1,2,3,5,6,7-hexahydrodicyclopenta [b,e]pyridin-8-yl)carbamoyl) thiazole-5-sulfonimidamide] |  |
|  | 5000 to 30000 | Cc1nc2c(c(NC(=O)N=S(N)(=O)c3cc(C(C)(C)O)cs3)c1C1CC1)CCC2 (single isomer, unassigned) [Compound 623b, (S) or (R)-N′-((3-cyclopropyl-2-methyl-6,7-dihydro-5H-cyclopenta[b]pyridin-4-yl)carbamoyl)-4-(2-hydroxypropan-2-yl)thiophene-2-sulfonimidamide] |  |
|  | 200 to 1000 | CCc1c(C(F)(F)F)nc2c(c1NC(=O)N=S(N)(=O)c1sc(C(C)(C)O)cc1F)CCC2 (single isomer, unassigned) [Compound 611b, (R) or (S)-N′-((3-ethyl-2-(trifluoromethyl)-6,7-dihydro-5H-cyclopenta[b]pyridin-4-yl)carbamoyl)-3-fluoro-5-(2-hydroxypropan-2-yl)thiophene-2-sulfonimidamide] |  |
